# Test results taken from BigSolDB 2.1.
structure (smiles),measurement,setting,value
CCCCCCCC[n+]1ccn(C)c1.O=[N+]([O-])[O-],solubility (mole fraction),"in benzene, 298.15 K",0.000303
same,solubility (mole fraction),"in benzene, 303.15 K",0.000357
same,solubility (mole fraction),"in benzene, 308.15 K",0.00041
same,solubility (mole fraction),"in benzene, 313.15 K",0.00049
same,solubility (mole fraction),"in benzene, 318.15 K",0.000572
same,solubility (mole fraction),"in benzene, 323.15 K",0.000661
same,solubility (mole fraction),"in benzene, 328.15 K",0.000751
same,solubility (mole fraction),"in benzene, 333.15 K",0.00086
same,solubility (mole fraction),"in benzene, 338.15 K",0.000981
same,solubility (mole fraction),"in benzene, 343.15 K",0.00111
same,solubility (mole fraction),"in cyclohexane, 293.15 K",0.000775
same,solubility (mole fraction),"in cyclohexane, 298.15 K",0.000901
same,solubility (mole fraction),"in cyclohexane, 303.15 K",0.00106
same,solubility (mole fraction),"in cyclohexane, 308.15 K",0.00124
same,solubility (mole fraction),"in cyclohexane, 313.15 K",0.00146
same,solubility (mole fraction),"in cyclohexane, 318.15 K",0.00169
same,solubility (mole fraction),"in cyclohexane, 323.15 K",0.00191
same,solubility (mole fraction),"in cyclohexane, 328.15 K",0.00212
same,solubility (mole fraction),"in cyclohexane, 333.15 K",0.00244
same,solubility (mole fraction),"in cyclohexane, 338.15 K",0.00275
same,solubility (mole fraction),"in m-xylene, 298.15 K",0.00526
same,solubility (mole fraction),"in m-xylene, 303.15 K",0.00566
same,solubility (mole fraction),"in m-xylene, 308.15 K",0.00605
same,solubility (mole fraction),"in m-xylene, 313.15 K",0.00645
same,solubility (mole fraction),"in m-xylene, 318.15 K",0.00685
same,solubility (mole fraction),"in m-xylene, 323.15 K",0.00725
same,solubility (mole fraction),"in m-xylene, 328.15 K",0.00765
same,solubility (mole fraction),"in m-xylene, 333.15 K",0.00805
same,solubility (mole fraction),"in m-xylene, 338.15 K",0.00845
same,solubility (mole fraction),"in m-xylene, 343.15 K",0.00885
same,solubility (mole fraction),"in n-heptane, 293.15 K",0.000342
same,solubility (mole fraction),"in n-heptane, 298.15 K",0.000407
same,solubility (mole fraction),"in n-heptane, 303.15 K",0.000488
same,solubility (mole fraction),"in n-heptane, 308.15 K",0.000586
same,solubility (mole fraction),"in n-heptane, 313.15 K",0.000728
same,solubility (mole fraction),"in n-heptane, 318.15 K",0.000856
same,solubility (mole fraction),"in n-heptane, 323.15 K",0.00101
same,solubility (mole fraction),"in n-heptane, 328.15 K",0.00119
same,solubility (mole fraction),"in n-heptane, 333.15 K",0.00143
same,solubility (mole fraction),"in n-heptane, 338.15 K",0.00166
same,solubility (mole fraction),"in n-heptane, 343.15 K",0.00193
same,solubility (mole fraction),"in n-hexane, 288.15 K",0.000683
same,solubility (mole fraction),"in n-hexane, 293.15 K",0.00078
same,solubility (mole fraction),"in n-hexane, 298.15 K",0.000919
same,solubility (mole fraction),"in n-hexane, 303.15 K",0.00113
same,solubility (mole fraction),"in n-hexane, 308.15 K",0.00128
same,solubility (mole fraction),"in n-hexane, 313.15 K",0.00162
same,solubility (mole fraction),"in n-hexane, 318.15 K",0.00184
same,solubility (mole fraction),"in n-hexane, 323.15 K",0.00206
same,solubility (mole fraction),"in n-hexane, 328.15 K",0.00232
same,solubility (mole fraction),"in n-hexane, 333.15 K",0.00271
same,solubility (mole fraction),"in n-octane, 293.15 K",0.000355
same,solubility (mole fraction),"in n-octane, 298.15 K",0.000411
same,solubility (mole fraction),"in n-octane, 303.15 K",0.000502
same,solubility (mole fraction),"in n-octane, 308.15 K",0.000605
same,solubility (mole fraction),"in n-octane, 313.15 K",0.000733
same,solubility (mole fraction),"in n-octane, 318.15 K",0.000866
same,solubility (mole fraction),"in n-octane, 323.15 K",0.00101
same,solubility (mole fraction),"in n-octane, 328.15 K",0.00123
same,solubility (mole fraction),"in n-octane, 333.15 K",0.00145
same,solubility (mole fraction),"in n-octane, 338.15 K",0.00168
same,solubility (mole fraction),"in n-octane, 343.15 K",0.00198
same,solubility (mole fraction),"in n-pentane, 278.15 K",0.000687
same,solubility (mole fraction),"in n-pentane, 283.15 K",0.000816
same,solubility (mole fraction),"in n-pentane, 288.15 K",0.000955
same,solubility (mole fraction),"in n-pentane, 293.15 K",0.0011
same,solubility (mole fraction),"in n-pentane, 298.15 K",0.00127
same,solubility (mole fraction),"in n-pentane, 303.15 K",0.00149
same,solubility (mole fraction),"in o-xylene, 298.15 K",0.005
same,solubility (mole fraction),"in o-xylene, 303.15 K",0.00529
same,solubility (mole fraction),"in o-xylene, 308.15 K",0.00558
same,solubility (mole fraction),"in o-xylene, 313.15 K",0.00587
same,solubility (mole fraction),"in o-xylene, 318.15 K",0.00616
same,solubility (mole fraction),"in o-xylene, 323.15 K",0.00646
same,solubility (mole fraction),"in o-xylene, 328.15 K",0.00675
same,solubility (mole fraction),"in o-xylene, 333.15 K",0.00704
same,solubility (mole fraction),"in o-xylene, 338.15 K",0.00733
same,solubility (mole fraction),"in o-xylene, 343.15 K",0.00762
same,solubility (mole fraction),"in p-xylene, 298.15 K",0.00308
same,solubility (mole fraction),"in p-xylene, 303.15 K",0.00331
same,solubility (mole fraction),"in p-xylene, 308.15 K",0.00358
same,solubility (mole fraction),"in p-xylene, 313.15 K",0.00383
same,solubility (mole fraction),"in p-xylene, 318.15 K",0.00408
same,solubility (mole fraction),"in p-xylene, 323.15 K",0.00431
same,solubility (mole fraction),"in p-xylene, 328.15 K",0.00458
same,solubility (mole fraction),"in p-xylene, 333.15 K",0.00483
same,solubility (mole fraction),"in p-xylene, 338.15 K",0.00508
same,solubility (mole fraction),"in p-xylene, 343.15 K",0.00533
same,solubility (mole fraction),"in toluene, 298.15 K",0.000371
same,solubility (mole fraction),"in toluene, 303.15 K",0.00043
same,solubility (mole fraction),"in toluene, 308.15 K",0.0005
same,solubility (mole fraction),"in toluene, 313.15 K",0.000598
same,solubility (mole fraction),"in toluene, 318.15 K",0.000699
same,solubility (mole fraction),"in toluene, 323.15 K",0.000806
same,solubility (mole fraction),"in toluene, 328.15 K",0.000892
same,solubility (mole fraction),"in toluene, 333.15 K",0.00103
same,solubility (mole fraction),"in toluene, 338.15 K",0.00117
same,solubility (mole fraction),"in toluene, 343.15 K",0.00133
